Assay results as given in publication PMC5755735, “Discovery of indolylpiperazinylpyrimidines with dual-target profiles at adenosine A2A and dopamine D2 receptors for Parkinson's disease treatment” (PLoS ONE, 2018).
Values joined by “and” are separate entries in the source; they are usually repeats but may differ in a detail not shown here. Equal entries are not always repeated.

Experiments:
[1] = system: LRRK2 G2019S flies; test: fly viability / survival of mutant LRRK2 G2019S flies; type: in vivo; settings: for effect on fly viability / mortality: concentrations in the 50–100 μM range; for effect on fly viability: ligand concentration 500 μM
Experimental: Studies have shown that expression of the LRRK2-G2019S mutantion in Drosophila caused more severe PD phenotypes, including locomotor dysfunction, loss of dopaminergic neurons, and early mortality, relative to that of wild-type LRRK2 [31]. Prior to evaluating compounds 5 and 6 in the Drosophila model of PD, the effect of compound concentrations on fly viability was studied. At the ligand concentration of 500 μM, both compounds were lethal to G2019S flies (data not shown). […] As there was no remarkable difference in the survival rate between 50 and 100 μM for compound 5, this range was selected for compound 5 for the subsequent climbing assay and quantification of DA neurons.
Fly lines for 24B-Gal4 (muscle specific), ddc-Gal4 (dopaminergic neuron-specific), elav-Gal4 (pan-neuronal), UAS-mito-GFP, and UAS-dAMPK-KA were purchased from Bloomington Drosophila Stock Center. The parkin-null mutant flies were kind gifts from Chung J. and Cho K. S. (Korea Advanced Institute of Science and Technology, Daejeon, Korea). To generate transgenic mutant LRRK2 G2019S, cDNA containing a myc-tag at the C terminus was inserted into pUAST plasmid and microinjected into Drosophila embryos (BestGene). Sequencing of cloned products was performed before they were microinjected into the embryos. Climbing assays were performed according to a previously described method. Briefly, 20 female adult flies from each group were randomly selected after being anaesthetised and placed in a vertical plastic column (length 25 cm; diameter 1.5 cm). Age-matched normal flies were used as controls. After a 2-hour recovery period from CO2 exposure, flies were gently tapped to the bottom of the column, and the number of flies that reached the top of column at 1 min was counted. Results are presented as mean ± SEM of the scores obtained from three independent experiments. To study the effect of compounds, flies were fed with cornmeal-agar medium supplemented with the DMSO solution of the compound immediately at post-eclosion (for parkin-null flies) or at day 35 onwards (for LRRK2 mutant flies) for a period of 25 days. Immunohistochemical analysis of whole-mount adult fly brains were prepared according to published protocols and stained with rabbit anti-TH (1:300, Pel-Freez Biologicals) as primary antibody. The stained samples were viewed using an Olympus Fluoview Upright Confocal Microscope. DA neurons were quantified according to previously published method. The size of mito-GFP puncta was measured using the ImageJ program and expressed as mean ± SD (n ≥ 10 DA neurons per experimental group). Statistical significance for all the quantitative data obtained were analyzed using one-way ANOVA with Tukey’s test HSD post hoc test (*p < 0.05, **p < 0.01).

[2] = biological target: human A2A receptors expressed in CHO cells (Homo sapiens, UniProt P29274); test: competition binding at human A2A adenosine receptors ([3H]NECA displacement); settings: for Ki: displacement of [3H]NECA, CHO cells, 95% confidence limits, n = 3–6, read-out: Ki hA2A; for hA1/hA2A / hA3/hA2A: selectivity ratio of Ki values
Experimental: A two-step procedure was adopted to prepare membrane for radioligand binding from cells stably transfected with human adenosine receptor subtypes (hA1, hA2A and hA3 expressed on CHO cells). Firstly, cell fragments and nuclei were removed by using low-speed centrifugation (1,000 g for 10 min). After that, crude membrane fraction from supernatant was then sedimented at 100,000 g for 30 min. The membrane pellet was subsequently re-suspended in the specific binding buffer, frozen in liquid nitrogen and stored at -80°C. For measurement of adenylyl cyclase activity in the hA2B receptors, one-step centrifugation procedure was used; the homogenate was sedimented for 30 min at 54,000 g. The so-obtained crude membrane pellet was re-suspended in 50 mM Tris/HCl, pH 7.4 and used for the adenylyl cyclase assay immediately.
Non-specific binding was determined using theophylline 1 mM. […] Non-specific binding was determined using N^6-R-phenylisopropyl adenosine (R-PIA) 100 μM. ^41 The binding of [^3H]HEMADO to CHO cells transfected with hA3 adenosine receptors was carried out as described earlier. […] Non-specific binding was determined using R-PIA 100 μM.
The assay mixture was then filtered through the built-in filter at the bottom of the 96-well microplate filtration system (Millipore Multiscreen MAFC) and washed three times with 200 μL of cold buffer. After addition of 20 μL of scintillator to the dried filter plates, the filter bound radioactivity was counted on a Wallac Micro-Beta counter. All Ki values were calculated by non-linear curve fitting with the program SCTFIT [45].

[3] = system: TAMH (TGF-α overexpressing mouse hepatocytes); test: cell viability assay in TAMH hepatocytes (Cell-Titer-Glo); type: cell-based; settings: concentrations less than 30 μM, 24 h
Experimental: Besides the mutagenicity study, compounds 5 and 6 were also subjected to cell viability assays using transforming growth factor-alpha mouse hepatocyte (TAMH) and HL-1 cardiomyocyte to assess the cytotoxic potential. TAMH lines were treated with compounds 5 and 6 in eight different concentrations (100 μM, 33.3 μM, 11.1 μM, 3.7 μM, 1.23 μM, 0.41 μM, 0.13 μM, 0.045 μM), and the percentage of viable cells was plotted against the logarithm of ligand concentration (S10B and S10C Fig). […] Acetaminophen, a drug with direct hepatotoxic potential, was used as the positive control in this assay (S10A Fig). […] Doxorubicin, a chemotherapeutic agent known to cause dose-dependent cardiotoxicity, was used as the positive control in this assay (S10D Fig).
Immortalised hepatocyte and cardiomyocyte cell lines, TAMH (TGF-α overexpressing mouse hepatocytes) and HL-1 were used respectively as models for in vitro toxicity studies. Both cell lines were cultured in accordance with previously described methods. […] The cell-reagent mixture was transferred to a solid white flat-bottom 96-well plate (Greiner 655207) for luminescence reading. Luminescence was recorded with an integration time of 0.25 second with a Tecam Infinite® M200 Microplate reader. Data are expressed as percentage of viable cells compared to DMSO-treated controls. […]

Chain of human A2A receptors expressed in CHO cells (P29274 whole entry, the tested form may be a part): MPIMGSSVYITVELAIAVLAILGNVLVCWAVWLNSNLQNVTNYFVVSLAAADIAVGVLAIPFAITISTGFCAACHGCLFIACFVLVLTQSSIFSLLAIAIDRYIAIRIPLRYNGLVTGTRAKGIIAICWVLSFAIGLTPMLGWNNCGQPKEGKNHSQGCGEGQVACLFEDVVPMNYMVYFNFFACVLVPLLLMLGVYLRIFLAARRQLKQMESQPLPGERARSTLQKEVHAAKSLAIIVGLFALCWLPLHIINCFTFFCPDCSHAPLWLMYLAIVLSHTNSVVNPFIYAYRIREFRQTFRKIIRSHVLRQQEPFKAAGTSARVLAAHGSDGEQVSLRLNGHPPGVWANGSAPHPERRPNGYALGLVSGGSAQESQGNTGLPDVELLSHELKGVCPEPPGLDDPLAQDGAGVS

**Q.** With Cc1cc(C)nc(N2CCN(C(=O)c3c[nH]c4ccccc34)CC2)n1 [Compound 5, 3‐[4‐(4,6‐Dimethylpyrimidin‐2‐yl)piperazine‐1‐carbonyl]‐1H‐indole] as the molecule, how does the “effect on fly viability / mortality” value [1] read?
**A.** able to delay the G2019S fly mortality

**Q.** What about the “effect on fly viability” value [1] of the same molecule?
**A.** lethal

**Q.** And the Ki [2]?
**A.** 11.2 µM and 8.7 to 11.2 µM

**Q.** What about the hA1/hA2A [2] of the same molecule?
**A.** >9

**Q.** What about the hA3/hA2A [2] of the same molecule?
**A.** >9

**Q.** And the “cytotoxicity (cell viability)” value [3]?
**A.** non-cytotoxic

**Q.** Cc1cc(C)nc(N2CCN(C(=O)Cc3c(C)[nH]c4ccccc34)CC2)n1 [Compound 6, 1‐[4‐(4,6‐Dimethylpyrimidin‐2‐yl)piperazin‐1‐yl]‐2‐(2‐methyl‐1H‐indol‐3‐yl)ethan‐1‐one] was tested. Which “effect on fly viability / mortality” value [1] did it give?
**A.** toxicity

**Q.** What about the “effect on fly viability” value [1] of the same molecule?
**A.** lethal

**Q.** What about the Ki [2] of the same molecule?
**A.** 8.71 µM

**Q.** What about the hA1/hA2A [2] of the same molecule?
**A.** >11

**Q.** And the hA3/hA2A [2]?
**A.** >11

**Q.** What about the “cytotoxicity (cell viability)” value [3] of the same molecule?
**A.** non-cytotoxic
